Like-named read-outs stand apart in the source and are kept apart here.
Experiments:
A549 = experiment: Cytotoxicity assay (cell titer-glo and calcein AM), A549; conditions: A549, % error in parentheses
NCI-H460 = experiment: Cytotoxicity assay (cell titer-glo and calcein AM), NCI-H460; conditions: NCI-H460, % error in parentheses
SF-268 = experiment: Cytotoxicity assay (cell titer-glo and calcein AM), SF-268; conditions: SF-268, % error in parentheses
Du145 = experiment: Cytotoxicity assay (cell titer-glo and calcein AM), Du145; conditions: Du145, % error in parentheses
ADR-RES = experiment: Cytotoxicity assay (cell titer-glo and calcein AM), ADR-RES; conditions: NCI/ADR RES, % error in parentheses
[1] = tested on: mouse mammary normal epithelial control cell line; experiment: Cytotoxicity assay, normal control cell line
MCF7 = experiment: Cytotoxicity assay (cell titer-glo and calcein AM), MCF7
Hep3B = experiment: Cytotoxicity assay (cell titer-glo and calcein AM), Hep3B; conditions: Hep 3B, % error in parentheses
SK-OV-3 = experiment: Cytotoxicity assay (cell titer-glo and calcein AM), SK-OV-3; conditions: SK-OV-3, % error in parentheses
[2] = read-out: Cytotoxicity IC50, A549, CTG, CTG (cell titer-glo) readout
[3] = read-out: Cytotoxicity IC50, A549, calcein, calcein AM readout
[4] = read-out: Cytotoxicity IC50, NCI-H460, CTG, CTG (cell titer-glo) readout
[5] = read-out: Cytotoxicity IC50, NCI-H460, calcein, calcein AM readout
[6] = read-out: Cytotoxicity IC50, SF-268, CTG, CTG (cell titer-glo) readout
[7] = read-out: Cytotoxicity IC50, SF-268, calcein, calcein AM readout
[8] = read-out: Cytotoxicity IC50, Du145, CTG, CTG (cell titer-glo) readout
[9] = read-out: Cytotoxicity IC50, Du145, calcein, calcein AM readout
[10] = read-out: Cytotoxicity IC50, NCI/ADR RES, CTG, CTG (cell titer-glo) readout
[11] = read-out: Cytotoxicity IC50, NCI/ADR RES, calcein, calcein AM readout
[12] = read-out: Cytotoxicity IC50, NmuMG, CTG, CTG (cell titer-glo) readout, % error in parentheses
[13] = read-out: Cytotoxicity IC50, NmuMG, calcein, calcein AM readout, % error in parentheses
[14] = read-out: Cytotoxicity IC50, MCF7, CTG, CTG (cell titer-glo) readout, % error in parentheses
[15] = read-out: Cytotoxicity IC50, MCF7, calcein, calcein AM readout, % error in parentheses
[16] = read-out: Cytotoxicity IC50, Hep 3B, CTG, CTG (cell titer-glo) readout
[17] = read-out: Cytotoxicity IC50, Hep 3B, calcein, calcein AM readout
[18] = read-out: Cytotoxicity IC50, SK-OV-3, CTG, CTG (cell titer-glo) readout
[19] = read-out: Cytotoxicity IC50, SK-OV-3, calcein, calcein AM readout

Compound | IC50 (A549; [2]) [µM] | IC50 (A549; [3]) [µM] | IC50 (NCI-H460; [4]) [µM] | IC50 (NCI-H460; [5]) [µM] | IC50 (SF-268; [6]) [µM] | IC50 (SF-268; [7]) [µM] | IC50 (Du145; [8]) [µM] | IC50 (Du145; [9]) [µM] | IC50 (ADR-RES; [10]) [µM] | IC50 (ADR-RES; [11]) [µM] | IC50 [1, 12] [µM] | IC50 [1, 13] [µM] | IC50 (MCF7; [14]) [µM] | IC50 (MCF7; [15]) [µM] | IC50 (Hep3B; [16]) [µM] | IC50 (Hep3B; [17]) [µM] | IC50 (SK-OV-3; [18]) [µM] | IC50 (SK-OV-3; [19]) [µM]
COc1cc2c(c(OC)c1OC)-c1ccc(OC)c(=O)cc1[C@@H](NC(=O)CN(OC)[C@@H]1O[C@H](C)[C@@H](O)[C@H](O)[C@H]1O)CC2 [Col2, 6-deoxy-D-glucoside] | 8.78 | 7.94 | 7.24 | 5.42 | 8.43 | > 10 | > 10 | > 7.79 | > 10 | > 10 | > 10 | > 10 | 4.86 | 4.77 | > 10 | > 10 | 9.86 | > 10
COc1cc2c(c(OC)c1OC)-c1ccc(OC)c(=O)cc1[C@@H](NC(=O)CN(OC)[C@@H]1O[C@H](CF)[C@@H](O)[C@H](O)[C@H]1O)CC2 [Col54, 6-deoxy-6-fluoro-D-glucoside] | > 10 | > 10 | 3.82 | 4.9 | > 10 | > 10 | > 10 | > 10 | > 10 | > 10 | > 10 | > 10 | > 10 | > 10 | > 10 | 4.66 | > 10 | > 10
COc1cc2c(c(OC)c1OC)-c1ccc(OC)c(=O)cc1[C@@H](NC(=O)CN(OC)[C@@H]1O[C@H](CO)[C@@H](O)[C@H](F)[C@H]1O)CC2 [Col33, 3-fluoro-3-deoxy-D-glucoside] | 2.02 | 1.87 | 4.39 | > 10 | 0.86 | 2.33 | 9.6 | 5.44 | > 10 | > 10 | 5.93 | > 10 | 6.64 | 6.13 | 2.67 | 1.99 | 1.25 | 1.89
COc1cc2c(c(OC)c1OC)-c1ccc(OC)c(=O)cc1[C@@H](NC(=O)CN(OC)[C@@H]1O[C@H](CCl)[C@H](O)[C@H](O)[C@H]1O)CC2 [Col41, 6-deoxy-6-chloro-D-galactoside] | 3.7 | 1.07 | 5.48 | 2.31 | 6.93 | 7.87 | 6.69 | 6.74 | 4.97 | 3.68 | > 10 | 9.27 | 3.36 | 1.85 | 8.8 | 5.99 | 5.61 | 7.95
COc1cc2c(c(OC)c1OC)-c1ccc(OC)c(=O)cc1C(NC(=O)CN(OC)C1OCC(O)C(O)C1O)CC2 [Col22, L-riboside] | 4.22 | 9.44 | 1.16 | 2 | 4.16 | 4.86 | 2.38 | > 10 | 2.23 | 3.56 | > 10 | > 10 | 4.27 | 2.87 | 2.44 | 3.95 | 4.84 | 4.84
CCCCCCCCCC(=O)N[C@@H]1[C@@H](O)[C@H](N(CC(=O)N[C@H]2CCc3cc(OC)c(OC)c(OC)c3-c3ccc(OC)c(=O)cc32)OC)O[C@H](CO)[C@H]1O [Col60, 3-deoxy-3-N-decanoyl-D-glucosaminoside] | > 10 | > 10 | 3.98 | 5.88 | 5.03 | 4.13 | 4.79 | 6.2 | 4.98 | 4.65 | 8.37 | 6.04 | 3.36 | 3.04 | 4.97 | > 10 | 4.38 | 4.15
mycaroside [Col49] | > 10 | > 10 | ≥ 10 | 9.31 | 9.94 | 7.86 | 5.2 | 8.56 | 5.38 | > 10 | > 10 | 8.84 | 4.38 | 5.21 | 9.76 | > 10 | > 10 | > 10
COc1cc2c(c(OC)c1OC)-c1ccc(OC)c(=O)cc1[C@@H](NC(=O)CN(OC)[C@@H]1O[C@H](C(=O)O)[C@@H](O)[C@H](O)[C@H]1O)CC2 [Col15, D-glucuronoside] | 2.21 | 3.92 | 1.08 | 0.96 | 1.17 | 1.02 | 1.27 | 1.64 | 1.66 | 1.54 | > 5 | > 5 | 0.99 | 4.41 | 3.28 | 3.44 | 1.07 | 2.88
COc1cc2c(c(OC)c1OC)-c1ccc(OC)c(=O)cc1[C@@H](NC(=O)CN(OC)[C@@H]1OC[C@@H](O)[C@H](O)[C@@H]1O)CC2 [Col1, D-lyxoside] | 2.91 | 1.21 | 4.51 | 3.93 | 3.86 | 4 | 1.97 | 2 | 2.63 | 1.91 | > 10 | 6.49 | 1.9 | 1.33 | 3.5 | 3.69 | 4 | 4
COc1cc2c(c(OC)c1OC)-c1ccc(OC)c(=O)cc1[C@@H](NC(=O)CN(OC)[C@@H]1O[C@H](CBr)[C@H](O)[C@H](O)[C@H]1O)CC2 [Col42, 6-deoxy-6-bromo-D-galactoside] | 3.94 | 2.64 | 4.4 | > 10 | 6.37 | 3.31 | 4.47 | 4.26 | 2.49 | 2.23 | 2.83 | 2.92 | 4.9 | 3.69 | > 10 | > 10 | 8.36 | > 10
COc1cc2c(c(OC)c1OC)-c1ccc(OC)c(=O)cc1[C@@H](NC(=O)CN(OC)[C@@H]1O[C@H](C)[C@H](O)[C@H](O)[C@H]1O)CC2 [Col9, D-fucoside] | > 10 | > 10 | > 10 | > 10 | > 10 | > 10 | > 10 | > 9.14 | > 10 | > 10 | > 10 | > 10 | > 9.96 | > 8.75 | > 10 | > 10 | > 10 | > 7.83
novioside [Col29] | 1.86 | 2.18 | 0.98 | 3.37 | 1.12 | 1.28 | 1.24 | 0.55 | 1.56 | 1.18 | > 5 | > 5 | 0.61 | 0.3 | 2.47 | 2.94 | 1.03 | 4.35
COc1cc2c(c(OC)c1OC)-c1ccc(OC)c(=O)cc1C(NC(=O)CN(OC)C1OCC(O)C(O)C1O)CC2 [Col20, D-arabinoside] | 9.07 | > 10 | 5.21 | 3.71 | 2.54 | 3.95 | 2.41 | 3.74 | 7.85 | 7.74 | > 10 | > 10 | 4.44 | 2.35 | > 10 | > 10 | > 10 | > 10

From patent publication US20130012466A1 (priority 2006, published 2013)
